From ChEMBL document CHEMBL1147560, “Thioxanthene-derived analogs as sigma(1) receptor ligands” (Bioorg Med Chem Lett, 2004)

Columns and labels:
Sigma 2 receptor = test: Binding affinity of compound was measured towards Sigma receptor type 2 by using [3H]ditolylguanidine as radioligand; set-up: species or system Cavia porcellus
[1] = target: T1, Sigma non-opioid intracellular receptor 1 (Homo sapiens, UniProt Q99720); test: Binding affinity for Sigma receptor type 1,using [3H](+)-pentazocine as radioligand
T1 sequence (Q99720 whole entry): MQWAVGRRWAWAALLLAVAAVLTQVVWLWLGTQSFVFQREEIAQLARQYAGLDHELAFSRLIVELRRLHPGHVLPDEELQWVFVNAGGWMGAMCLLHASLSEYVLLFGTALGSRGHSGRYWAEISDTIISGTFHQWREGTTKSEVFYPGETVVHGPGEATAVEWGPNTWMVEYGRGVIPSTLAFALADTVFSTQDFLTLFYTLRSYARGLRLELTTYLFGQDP

[2] = target: T1, Sigma non-opioid intracellular receptor 1; test: Selectivity for sigma 2 compared to sigma 1 receptor
[3] = Binding affinity for Sigma receptor type 1,using [3H](+)-pentazocine as radioligand

| SMILES | Ki (Sigma 2 receptor) [nM] | Ki [1] [nM] | Selectivity [2] | Selectivity ([2]; Cavia porcellus) | Ki [3] [nM] |
| --- | --- | --- | --- | --- | --- |
| CC1CCN(CCCC=C(c2ccccc2)c2ccccc2)CC1 | 25 |  |  |  |  |
| CN1CCN(CC/C=C\c2ccccc2)CC1 | 2540 | 29 | 88 |  |  |
| CC1CCN(CCCC(c2ccccc2)c2ccccc2)CC1 | 28 | 1.1 | 25 |  |  |
| CC1CCN(CCCCCc2ccccc2)CC1 |  | 0.07 |  |  |  |
| c1ccc(CCNCCCCC(c2ccccc2)c2ccccc2)cc1 | 100 | 0.66 |  | 152 |  |
| CC1CCN(CCC=C(c2ccccc2)c2ccccc2)CC1 | 28 | 1.9 | 15 |  |  |
| CCN(CC)CCOC(=O)C(O)(c1ccccc1)c1ccccc1 [BENACTYZINE] |  | > 1000 |  |  |  |
| CCN(CC)CCCCC(O)(c1ccccc1)c1ccccc1 | 800 | 12 | 67 |  |  |
| CC1CCN(CCC=C2c3ccccc3Sc3ccccc32)CC1 | 26 | 0.8 | 33 |  |  |
| CCN(CC)CCCCC(c1ccccc1)c1ccccc1 | 51 | 1.4 | 36 |  |  |
| CCCC(C(=O)OCCN(CC)CC)(c1ccccc1)c1ccccc1 [PROADIFEN] | 1100 |  |  |  |  |
| CC1CCN(CCCCC(c2ccccc2)c2ccccc2)CC1 | 17 | 0.09 | 189 |  |  |
| CN(CCCCCc1ccccc1)CCc1ccccc1 |  |  |  |  | 0.25 |
| CN1CCN(CCCCc2ccccc2)CC1 | 900 | 20 | 45 |  |  |
| CN(CCCCC(c1ccccc1)c1ccccc1)CCc1ccccc1 | 32 | 0.48 | 67 |  |  |
| CN(CCCC=C(c1ccccc1)c1ccccc1)CCc1ccccc1 | 41 | 0.89 | 46 |  |  |
| C(CCCNCCc1ccccc1)=C(c1ccccc1)c1ccccc1 | 142 |  |  |  |  |
| CN1CCN(CC/C=C/c2ccccc2)CC1 | 1300 | 29 | 45 |  |  |
